Results on 28 compounds are retold here after patent US20120065187A1 (ALCON RESEARCH, LTD, priority 2008, published 2012).

Assay [1] has as its target T1, human H4 (Homo sapiens, UniProt Q9H3N8).
T1 construct: host or cells: CHO-K1
Briefly: In vitro histamine receptor cell-based assay (aequorin bioluminescence), H4 antagonism. Particulars: CHO-K1 cells expressing human H4, aequorin and Gα16; histamine at EC80; read-out: H4 Antagonist EC50. Here is the method: (§1) The cell-based assays utilize an aequorin dependent bioluminescence signal. Doubly-transfected, stable CHO-K1 cell lines expressing human H1 or H4, mitochondrion-targeted aequorin, and (H4 only) human G protein Gα16 are obtained from Perkin-Elmer. Cells are maintained in F12 (Ham's) growth medium, containing 10% (vol./vol.) fetal bovine serum, penicillin (100 IU/mL), streptomycin (0.1 mg/mL), zeocin (0.25 mg/mL) and geneticin (0.40 mg/mL). Cell media components are from Invitrogen, Inc. One day prior to assay, the growth medium is replaced with the same, excluding zeocin and geneticin.
(§2) For assay preparation, growth medium is aspirated, and cells are rinsed with calcium-free, magnesium-free phosphate-buffered saline, followed by two to three minute incubation in Versene (Invitrogen, Inc.) at 37° C. Assay medium (DMEM:F12 [50:50], phenol-red free, containing 1 mg/mL protease-free bovine serum albumin) is added to collect the released cells, which are then centrifuged. The cell pellet is re-suspended in assay medium, centrifuged once more, and re-suspended in assay medium to a final density of 5×10^6 cells/mL. Coelenterazine-h dye (500 μM in ethanol) is added to a final concentration of 5 μM, and mixed immediately. The conical tube containing the cells is then wrapped with foil to protect the light-sensitive dye. The cells are incubated for four hours further at room temperature (approximately 21° C.) with end-over-end rotation to keep them in suspension.
Just before assay, the dye-loaded cells are diluted to 0.75×10^6 cells/mL (H1 receptor) or 1.5×10^6 cells/mL (H4 receptor) with additional assay medium. Cells are dispensed to 1536 well micro-titer plates at 3 μL/well. To assay receptor antagonism, 60 nl of 100× concentration test compounds in 100% dimethyl sulfoxide (DMSO) are dispensed to the wells, one compound per well, by passive pin transfer, and the plates are incubated for 15 minutes at room temperature. […] The pipette dispenses 3 μL/well of agonist (histamine, at twice the final concentration, where final concentration is a previously determined EC80) in assay medium, with concurrent bioluminescence detection. Agonist activity of test compounds is excluded by separate assays that measure response to test compounds immediately, without added histamine agonist.
(§3) CCD image capture on the Lumilux includes a 5 second baseline read prior to agonist addition, and generally a 40 second read per plate after agonist addition. A decrease in bioluminescence signal (measured either as area-under-the-curve, or maximum signal amplitude minus minimum signal amplitude) correlates with receptor antagonism in a dose dependent manner. The negative control is DMSO lacking any test compound. For antagonist assays, the positive controls are diphenhydramine (2-Diphenylmethoxy-N,N-dimethylethylamine, 10 μM final concentration, H1 receptor) or JNJ7777120 (1-[(5-Chloro-1H-indol-2-yl)carbonyl]-4-methyl-piperazine, 10 μM final concentration, H4 receptor). Efficacy is measured as a percentage of positive control activity.

Assay [2] has as its target T2, human H1 (Homo sapiens, UniProt P35367).
T2 construct: host or cells: CHO-K1
The experiment in a line: In vitro histamine receptor cell-based assay (aequorin bioluminescence), H1 antagonism. The following applies: CHO-K1 cells expressing human H1 and aequorin; histamine at EC80; read-out: H1 Antagonist EC50. Here is the method:
as §1, §2
Just before assay, the dye-loaded cells are diluted to 0.75×10^6 cells/mL (H1 receptor) or 1.5×10^6 cells/mL (H4 receptor) with additional assay medium. Cells are dispensed to 1536 well micro-titer plates at 3 μL/well. To assay receptor antagonism, 60 nl of 100× concentration test compounds in 100% dimethyl sulfoxide (DMSO) are dispensed to the wells, one compound per well, by passive pin transfer, and the plates are incubated for 15 minutes at room temperature. Assay plates are then transferred to a Lumilux bioluminescence plate reader (Perkin-Elmer) equipped with an automated 1536 disposable tip pipette. The pipette dispenses 3 μL/well of agonist (histamine, at twice the final concentration, where final concentration is a previously determined EC80) in assay medium, with concurrent bioluminescence detection. Agonist activity of test compounds is excluded by separate assays that measure response to test compounds immediately, without added histamine agonist.
as §3

SMILES strings stand for the structures.

As usually defined, the EC50 is the concentration giving half of the maximal effect.

T1 sequence (Q9H3N8 whole entry): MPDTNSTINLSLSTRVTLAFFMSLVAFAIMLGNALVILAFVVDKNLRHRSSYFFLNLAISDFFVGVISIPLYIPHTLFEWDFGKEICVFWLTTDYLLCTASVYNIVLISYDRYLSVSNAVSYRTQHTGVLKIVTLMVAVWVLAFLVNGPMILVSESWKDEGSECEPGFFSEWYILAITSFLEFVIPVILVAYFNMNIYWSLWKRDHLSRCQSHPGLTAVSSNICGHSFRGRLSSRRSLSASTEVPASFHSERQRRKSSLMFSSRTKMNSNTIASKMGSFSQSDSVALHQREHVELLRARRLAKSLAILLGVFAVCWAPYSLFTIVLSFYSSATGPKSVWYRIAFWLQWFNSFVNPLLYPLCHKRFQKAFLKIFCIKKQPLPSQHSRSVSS
T2 sequence (P35367 whole entry): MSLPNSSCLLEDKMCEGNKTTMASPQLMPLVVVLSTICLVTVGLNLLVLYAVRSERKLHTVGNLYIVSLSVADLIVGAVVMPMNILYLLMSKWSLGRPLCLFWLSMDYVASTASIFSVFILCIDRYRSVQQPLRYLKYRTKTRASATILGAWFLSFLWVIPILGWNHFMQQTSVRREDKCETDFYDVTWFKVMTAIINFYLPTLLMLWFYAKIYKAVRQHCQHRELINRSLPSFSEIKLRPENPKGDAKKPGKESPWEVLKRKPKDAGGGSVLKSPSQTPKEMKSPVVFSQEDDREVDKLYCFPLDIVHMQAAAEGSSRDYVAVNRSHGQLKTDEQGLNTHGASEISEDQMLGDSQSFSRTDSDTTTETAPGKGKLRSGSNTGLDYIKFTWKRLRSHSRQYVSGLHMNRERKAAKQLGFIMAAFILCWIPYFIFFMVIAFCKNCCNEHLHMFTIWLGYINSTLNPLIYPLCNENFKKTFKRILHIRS

For `CN1CCN(c2nc3cc(Cl)c(C(F)(F)F)cc3n3cnnc23)CC1` [Example 44, 7-Chloro-4-(4-methylpiperazin-1-yl)-8-(trifluoromethyl)-[1,2,4]triazolo[4,3-a]quinoxaline], the EC50 in assay [1] is below 10 µM; in assay [2], above 10 µM.

Consider `CN1CCN(c2nc3cc(C(F)(F)F)c(Cl)cc3n3cnnc23)CC1` [Example 46, 8-Chloro-4-(4-methylpiperazin-1-yl)-7-(trifluoromethyl)-[1,2,4]triazolo[4,3-a]quinoxaline], for which the figures for the 50% effective concentration (EC50) in assay [1] and in assay [2] were below 10 µM and above 10 µM, respectively.

For the compound `FC(F)(F)c1cc2nc(N3CCNCC3)c3nncn3c2cc1Cl` [Example 47, 8-Chloro-4-(piperazin-1-yl)-7-(trifluoromethyl)-[1,2,4]triazolo[4,3-a]quinoxaline], the EC50 in assay [1] was below 10 µM; in assay [2], above 10 µM.

For the compound `CN1CCN(c2nc3c(F)cc(C(F)(F)F)cc3n3cnnc23)CC1` [Example 48, 6-Fluoro-4-(4-methylpiperazin-1-yl)-8-(trifluoromethyl)-[1,2,4]triazolo[4,3-a]quinoxaline], the EC50 in assay [1] was below 10 µM; in assay [2] it was above 10 µM.

Consider `CN1CCN(c2nc3ccc(OC(F)(F)F)cc3n3cnnc23)CC1` [Example 50, 4-(4-methylpiperazin-1-yl)-8-(trifluoromethoxy)-[1,2,4]triazolo[4,3-a]quinoxaline], for which the values for the concentration for a half-maximal effect (EC50) in assay [1] and in assay [2] were below 10 µM and above 10 µM, respectively.

Regarding `FC(F)(F)Oc1ccc2nc(N3CCNCC3)c3nncn3c2c1` [Example 51, 4-(piperazin-1-yl)-8-(trifluoromethoxy)-[1,2,4]triazolo[4,3-a]quinoxaline], the EC50 in assay [1] is below 10 µM; in assay [2] it was above 10 µM.

For `Brc1ccc2c(c1)nc(N1CCNCC1)c1nncn12` [Example 53, 7-bromo-4-(piperazin-1-yl)-[1,2,4]triazolo[4,3-a]quinoxaline], the half-maximal effective concentration (EC50) in assay [1] and in assay [2] was above 10 µM each time.

For the compound `CC(C)(C)OC(=O)N1CCN(c2nc3ccc(Cl)cc3n3cnnc23)CC1` [Example 56, tert-butyl 4-(8-chloro-[1,2,4]triazolo[4,3-a]quinoxalin-4-yl)piperazine-1-carboxylate], the EC50 in assay [1] and in assay [2] was above 10 µM in each case.

With `CN1CCN(c2nc3ccccc3n3cnnc23)CC1` [Example 58, 4-(4-methylpiperazin-1-yl)-[1,2,4]triazolo[4,3-a]quinoxaline], the EC50 in assay [1] was below 10 µM; in assay [2], above 10 µM.

As for `NC1CCN(c2nc3ccc(Cl)cc3n3cnnc23)C1` (centres unmarked) [Example 59, 1-(8-chloro-[1,2,4]triazolo[4,3-a]quinoxalin-4-yl)pyrrolidin-3-amine], the EC50 is below 10 µM in assay [1] and above 10 µM in assay [2].

Consider `CNC1CCN(c2nc3ccc(Cl)cc3n3cnnc23)C1` (centres unmarked) [Example 60, 1-(8-chloro-[1,2,4]triazolo[4,3-a]quinoxalin-4-yl)-N-methylpyrrolidin-3-amine], for which the results for the EC50 in assay [1] and in assay [2] were below 10 µM and above 10 µM, respectively.

Take `Clc1ccc2nc(N3CC4CCCNC4C3)c3nncn3c2c1` (centres unmarked) [Example 61, 8-chloro-4-(tetrahydro-1H-pyrrolo[3,4-b]pyridin-6(2H,7H,7aH)-yl)-[1,2,4]triazolo[4,3-a]quinoxaline]: the concentration giving a half-maximal response (EC50) in assay [1] was below 10 µM; in assay [2] it was above 10 µM.

In the case of `CN1CC2CN(c3nc4ccc(Cl)cc4n4cnnc34)CC2C1` (centres unmarked) [Example 62, 8-chloro-4-(5-methylhexahydropyrrolo[3,4-c]pyrrol-2(1H)-yl)-[1,2,4]triazolo[4,3-a]quinoxaline], the EC50 in assay [1] was below 10 µM; in assay [2] it was above 10 µM.

Turning to `NC1CN(c2nc3ccc(Cl)cc3n3cnnc23)C1` [Example 63, 1-(8-chloro-[1,2,4]triazolo[4,3-a]quinoxalin-4-yl)azetidin-3-amine], the values for the EC50 in assay [1] and in assay [2] were below 10 µM and above 10 µM, respectively.

Turning to `Clc1ccc2nc(N3CCN(C4CC4)CC3)c3nncn3c2c1` [Example 64, 8-chloro-4-(4-cyclopropylpiperazin-1-yl)-[1,2,4]triazolo[4,3-a]quinoxaline], the EC50 is below 10 µM in assay [1] and above 10 µM in assay [2].

Regarding `Clc1ccc2nc(N3CCN4CCCC4C3)c3nncn3c2c1` (centres unmarked) [Example 65, 8-chloro-4-(hexahydropyrrolo[1,2-a]pyrazin-2(1H)-yl)-[1,2,4]triazolo[4,3-a]quinoxaline], the EC50 is below 10 µM in assay [1] and above 10 µM in assay [2].

As for `Clc1ccc2nc(N3CC4CC3CN4)c3nncn3c2c1` (centres unmarked) [Example 67, 4-(2,5-diazabicyclo[2.2.1]heptan-2-yl)-8-chloro-[1,2,4]triazolo[4,3-a]quinoxaline], the EC50 is below 10 µM in assay [1] and above 10 µM in assay [2].

For the compound `CN1CCCN(c2nc3ccc(Cl)cc3n3cnnc23)CC1` [Example 68, 8-chloro-4-(4-methyl-1,4-diazepan-1-yl)-[1,2,4]triazolo[4,3-a]quinoxaline], the EC50 in assay [1] is below 10 µM; in assay [2] it was above 10 µM.

For `Clc1ccc2nc(N3CC4CNCC4C3)c3nncn3c2c1` (centres unmarked) [Example 69, 8-chloro-4-(hexahydropyrrolo[3,4-c]pyrrol-2(1H)-yl)-[1,2,4]triazolo[4,3-a]quinoxaline], the EC50 in assay [1] and in assay [2] was above 10 µM throughout.

As to `NCCNc1nc2ccc(Cl)cc2n2cnnc12` [Example 70, N^1-(8-chloro-[1,2,4]triazolo[4,3-a]quinoxalin-4-yl)ethane-1,2-diamine], the EC50 in assay [1] and in assay [2] was above 10 µM in each case.

On to `Clc1ccc2nc(NCCN3CCOCC3)c3nncn3c2c1` [Example 71, 8-chloro-N-(2-morpholinoethyl)-[1,2,4]triazolo[4,3-a]quinoxalin-4-amine], for which the EC50 in assay [1] and in assay [2] was above 10 µM in each case.

Take `Clc1ccc2nc(OC3CNC3)c3nncn3c2c1` [Example 72, 4-(azetidin-3-yloxy)-8-chloro-[1,2,4]triazolo[4,3-a]quinoxaline]: the EC50 in assay [1] and in assay [2] was above 10 µM in each case.

On to `Clc1ccc2nc(NC3CCNCC3)c3nncn3c2c1` [Example 73, 8-chloro-N-(piperidin-4-yl)-[1,2,4]triazolo[4,3-a]quinoxalin-4-amine], for which the 50% effective concentration (EC50) in assay [1] and in assay [2] was above 10 µM in each case.

For the compound `Clc1ccc2nc(OC3CCNCC3)c3nncn3c2c1` [Example 74, 8-chloro-4-(piperidin-4-yloxy)-[1,2,4]triazolo[4,3-a]quinoxaline], the EC50 in assay [1] and in assay [2] was above 10 µM each time.

`Clc1ccc2nc(OCC3CNC3)c3nncn3c2c1` [Example 75, 4-(azetidin-3-ylmethoxy)-8-chloro-[1,2,4]triazolo[4,3-a]quinoxaline]: the EC50 in assay [1] and in assay [2] was above 10 µM each time.

As to `CN1CC[C@H](COc2nc3ccc(Cl)cc3n3cnnc23)C1` [Example 76, (S)-8-chloro-4-((1-methylpyrrolidin-3-yl)methoxy)-[1,2,4]triazolo[4,3-a]quinoxaline], the EC50 in assay [1] and in assay [2] was above 10 µM throughout.

On to `CNCCN(C)c1nc2ccc(Cl)cc2n2cnnc12` [Example 77, N^1-(8-chloro-[1,2,4]triazolo[4,3-a]quinoxalin-4-yl)-N^1,N^2-dimethylethane-1,2-diamine], for which the EC50 in assay [1] and in assay [2] was above 10 µM throughout.

As to `CN(C)CCN(C)c1nc2ccc(Cl)cc2n2cnnc12` [Example 78, N^1-(8-chloro-[1,2,4]triazolo[4,3-a]quinoxalin-4-yl)-N^1,N^2,N^2-trimethylethane-1,2-diamine], the concentration giving a half-maximal response (EC50) in assay [1] and in assay [2] was above 10 µM throughout.
